Data from patent US20060211071A1, “Device for aggregating, imaging and analyzing thrombi and a method of use” (Millennium Pharmaceuticals, Inc., priority 2004, published 2006).
Where a SMILES comes first, the peptide text is derived from it. Bridges are numbered along the chain shown (N, C = ends). [ ]: non-standard residue; d: D form. hArg = N=C(N)NCCCC[C@H](N)C(=O)O; Mpa = O=C(O)CCS

Tests used:
[1] = system: thrombi on type III collagen-coated capillaries; test: End-point perfusion chamber assay: effect of anticoagulants on antithrombotic activity of a P2Y12 antagonist; format: cell-based, human; settings: 4 minutes at 1000/sec
Experimental: Several anticoagulants have been studied for their effects on the antithrombotic activity of a proprietary direct P2Y12 antagonist in the perfusion chamber assay. Whole blood was perfused over type III collagen-coated capillaries for 4 minutes at 1000/sec. At the end of the experiment, thrombotic deposits were rinsed, fixed and stained with toluidine blue for measurement of thrombus size. […] FIG. 10B represents the mean grey level (MGL) of the thrombi present in the area of observation located at 8 mm from the proximal part of the capillary. Corresponding thrombus volume was determined using the graph presented on FIG. 10C. Nonanticoagulated or Factor Xa anticoagulated human blood was perfused through type III collagen-coated capillary chambers (Vitrocom, glass rectangular capillaries 0.2 by 2 mm section) at […] for 4 minutes. After staining of the thrombotic deposits with toluidine blue for 45 seconds, an En Face picture located 8 mm downstream of the proximal part of the capillary was taken. Measurement of the gray level of each thrombus or platelets located in a window 400 μm long×250 μm wide was performed, and results are expressed as mean ±SEM using the Simple PCI software (Compix Inc Imaging System). Measurement of the mean thrombus volume (μm^3/μm^2) was performed at the same location on cross sections of the thrombotic deposits after epon embedding as described by Andre et al. (2003) Circulation 108, 2697-2703. Mean thrombus volume was expressed by use of Simple PCI software and plotted against the corresponding mean grey level. By using data from human in vitro (by titrating with the GPIIb/IIIa antagonist eptifibatide) experiments, a thrombotic profile (FIG. 10C) that was then used for a rapid measurement of the thrombus volume in subsequent experiments Was established

preformed thrombi = test: Stability / reversal of preformed thrombi, blood perfused over collagen surface under arterial shear rates; format: cell-based, human
Experimental: Images are recorded at a frequency of 1 Hz.
Such assays can be used to detect antithrombotic activity of drugs that will target known effectors of thrombus stability reported in animal models of thrombosis (CD40L, Gas6, SLAM, SAP, Ephrin).

thrombus size = test: Sequential study of thrombotic profile of 20 healthy volunteers on clopidogrel, aspirin and their combination; format: in vivo, human; settings: clopidogrel 75 mg/day, aspirin 325 mg/day
thrombus destabilization = settings: two 300 mg loading doses of plavix and daily aspirin
[2] = system: thrombotic process on collagen+tissue factor coated matrix; test: Non-anticoagulated blood perfused over fibrillar collagen plus tissue factor matrix; format: cell-based; settings: therapeutic dose; arterial shear rates
Source text: In this method, the thrombotic process can be evaluated with non-anticoagulated samples of blood. Non-anticoagulated samples of blood perfused over a thrombogenic matrix made of fibrillar collagen plus tissue factor generate thrombotic process under both venous and arterial shear rates that is sensitive to the action of different anticoagulants. In FIG. 22, the thrombotic profile, is inhibited by the therapeutic dose of enoxaparin and a factor Xa inhibitor indicating this system can be used to detect the activity of anticoagulants under arterial shear rates. Similarly, this method can be used to detect both platelet and fibrin deposition under venous shear rate conditions using for example fluorescently labeled antibodies directed against fibrin.

platelets = test: Whole blood treated with GPIIb/IIIa antagonist perfused over collagen surface: monolayer of adhering platelets; format: cell-based; settings: therapeutic dose 2-3 uM
Source text: P-selectin is responsible for the recruitment of leukocytes on activated/inflamed vessel wall and at sites of platelet deposition. It is known that leukocyte recruitment under these conditions will contribute to atherosclerotic plaque progression. Therefore monitoring the number of leukocyte rolling on adhering platelets could help define people at risk to develop future atherothrombotic events (number of leukocyte recruited as a predictor of future clinical events). Whole blood treated with a GPIIb/IIIa antagonist (e.g. Integrilin at the therapeutic dose 2-3 uM) and perfused over a collagen surface generate a monolayer of adhering platelets. […] Two to three minutes after the start of the perfusion at arterial shear rates of about ˜600/sec, leukocytes stained with rhodamine 6G are being recruited and roll over the adhering platelets. Antithrombotic agents (or agents targeting the P-selectin/PSGL-1 pathway) that will reduce the amount of leukocyte rolling on adhering platelets will therefore potentially reduce the risks of atherothrombotic events.

[3] = system: thrombotic process triggered by type III collagen; settings: 1000/sec
Experimental: The methodology and device described herein allows the monitoring in real time of the deposition of fluorescently labeled platelets into a transparent perfusion chamber (FIG. 11). The thrombosis profiler consists of a custom built epifluorescence microscope to monitor thrombus formation and a syringe pump to establish the desired flow and wall shear rate in the capillary perfusion chamber. A thermostatic sample compartment maintains the blood sample at a temperature of 37° C. Platelets are labeled by adding an aliquot of Rhodamine 6G (final concentration 1.25 μg/ml) to whole blood. […] Excitation and emission light are filtered with a set of fluorescence filters (31002, Chroma Technologies, Rockingham, Vt.). […] Images are recorded at a frequency of 1 Hz. […]
A software/algorithm has been developed in order to obtain a more representative read out of the thrombus formation over time. […] Since the use of antithrombotic drugs can increase platelet adhesion, thrombus size was represented as the measurement of the fluorescence intensity divided by total area (FIG. 12). […] Once the threshold is determined, pixels with values lower than the threshold are classified as background and pixels with values greater than the threshold are marked as foreground. […]

In the case of `NC(N)=NCCC[C@H](NC(=O)[C@@H]1CCCN1C(=O)[C@H](N)Cc1ccccc1)C(=O)CCl` [PPACK], the “effect of the anticoagulant on the antithrombotic activity of a P2Y12 antagonist” value (from here on “effect of the anticoagulant”) [1] is reported as “artificially increased the antithrombotic effects of P2Y12 antagonist”.
For hirudin, the “effect of the anticoagulant” value [1] was “least impact on the antithrombotic activity of P2Y12 antagonist”.
`COC(=O)[C@H](c1ccccc1Cl)N1CCc2sccc2C1` [clopidogrel] was tested, and the “mechanism of effect on thrombosis (thrombus stability)” value (from here on “mechanism of effect on thrombosis”) (preformed thrombi) was “affect thrombosis via a mechanism targeting the thrombus stability”, the “healthy individuals that did not respond to monotherapy” value (thrombus size) was 4 out of 20 and the “antithrombotic protection in type II diabetic patient” value (thrombus destabilization) was “lack of protection”.
With `CSc1nc(N)c2ncn([C@@H]3O[C@H](COP(=O)(O)O)[C@@H](O)[C@H]3O)c2n1` [2MeSAMP] the “mechanism of effect on thrombosis” value (preformed thrombi) was “affect thrombosis via a mechanism targeting the thrombus stability”, the “destabilization / reversal of preformed thrombi” value (preformed thrombi; 100 uM) was “induces the destabilization of preformed thrombi” and the “extent of the reversal phenomenon in presence of aspirin” value (preformed thrombi; 2MeSAMP at 100 uM, aspirin present) was “increased in presence of aspirin”.
With `CCCCCNC(=O)c1coc([C@H]2[C@@H](Cc3ccccc3CCC(=O)O)[C@@H]3CC[C@H]2O3)n1` [Ifetroban] the “mechanism of effect on thrombosis” value (preformed thrombi) was “affect thrombosis via a mechanism targeting the thrombus stability” and the “stability of preformed thrombi” value (preformed thrombi; 300 nM and 1 uM) was “significantly altered their stability”.
For `O=C(O)CC(O)(CC(=O)O)C(=O)O` [Citrate], the “effect of the anticoagulant” value [1] was “artificially increased the antithrombotic effects of P2Y12 antagonist”.
For `CNc1ncnc2c1ncn2[C@H]1C[C@H](OP(=O)(O)O)[C@@H](COP(=O)(O)O)O1` [MRS2179], the “destabilization / reversal of preformed thrombi” value (preformed thrombi; 100 uM) was “did not induced thrombus reversal” and the “slope of thrombus growth” value (preformed thrombi; 100 uM, added to preformed thrombi) was “reduced the slope of thrombus growth”.
For `CC(=O)Oc1ccccc1C(=O)O` [aspirin], the “mechanism of effect on thrombosis” value (preformed thrombi) was “affect thrombosis via a mechanism targeting the thrombus stability” and the “healthy individuals that did not respond to monotherapy” value (thrombus size) was 5 out of 20.
For enoxaparin, the thrombotic profile [2] was “inhibited”.
With `N=C(N)NCCCC[C@@H]1NC(=O)CCSSC[C@@H](C(N)=O)NC(=O)[C@@H]2CCCN2C(=O)[C@H](Cc2c[nH]c3ccccc23)NC(=O)[C@H](CC(=O)O)NC(=O)CNC1=O` [Integrilin] ([Mpa][hArg]GDWPC-NH2; disulfide 1-7) the platelet activation (platelets) was “platelet activation is not affected”, the thrombus formation (platelets) was “thrombus formation is abrogated” and the “concentration reaching maximum level of inhibition (therapeutic dose)” value ([3]; Factor Xa-anticoagulated blood) was 2 µM. The “inhibition of the thrombotic process” value ([3]; increasing concentrations spiked into Factor Xa-anticoagulated blood) was “dose-dependently inhibited the thrombotic process”.
